# Laboratory results: patent US9861702B2, “Lipid-conjugated rhamnose for immune system recruitment and oncotherapy” (WISCONSIN ALUMNI RESEARCH FOUNDATION, priority 2012, dated 2018)
# Entries after “also recorded” stand apart in the source; their conditions may differ. Where two headings read alike, the source gives them in different places.
# Tests used:
# [1] = test system: M21 cells; test: DNP-lipid insertion into cell membranes, anti-DNP staining, flow cytometry; type: cell-based; settings: M21 cells treated with DNP-lipid, stained with anti-DNP
# Text: FIG. 4 is a graph showing the results of flow cytometry measurement of M21 cells treated with or without DNP-lipid and stained with anti-DNP. DNP-lipid 100 (Avanti Polar Lipids, Alabaster, Ala.) was used for the experiment.
# As an initial assessment of antigen-lipid insertion into cell membranes, a hapten-lipid conjugate, DNP-lipid (100, a dipalmitoleoyl phosphatidylethanolamine-DNP conjugate) and anti-DNP-antibody were used to determine if (1) lipids would insert into model M21 cell line and (2) if the antigen headgroups of the antigen-lipid conjugates would remain accessible to antibodies. M21 cells treated with the DNP-lipid followed by staining with anti-DNP were analyzed by flow cytometry (FIG. 4).
# [2] = test system: antibodies in human serum; test: Stability of antigen-antibody complexes in serum, SPR loss of response units over 1 hour; type: binding; settings: over one hour, corrected RU
# Procedure: FIG. 3 also includes a Table showing percentage loss calculated as (RUT2)/RuT1. All RU were corrected by reference subtraction.
# The relative stability of antigen-antibody complexes for DNP, αGal and Rha in serum was assessed by evaluating RU (corrected RU) as a function of time (over 1 hour). FIG. 3 illustrates the decay of RU with time for antigen-antibody complexes for the three antigens. Due to the complexity of these systems, exact kinetic parameters could not be determined; however the loss of response units over time provides an estimate rank ordering of dissociation rates and complex longevity.
# [3] = test system: complement component C4d; test: Activation of complement, deposition of complement component C4d on treated M21 cells, flow cytometry; type: cell-based; settings: 25% normal human serum, 1 hour at 37° C.
# Procedure: FIG. 6 is a graph showing the results of flow cytometry measurements of M21 cells treated with the indicated rhamnose-lipid conjugates, or with an antibody known to activate complement (14.18) exposed to normal human serum and subsequently stained for C4d, a marker of complement activation.
# Rhamnose-lipid conjugates 4 (Rha1-DPoPE) and 51 (Rha2-DPoPE) were synthesized as described in Example 1. The ability of these compounds to activate complement was tested by looking for deposition of complement component C4d. M21 cells treated with buffer, rha1-DPoPE, rha2-DPoPE, or a control antibody known to activate complement (14.18) were exposed to 25% normal human serum for 1 hour at 37° C., washed and stained for C4d, and analyzed by flow cytometry. […] The 14.18 antibody employed was the Ch14.18-IL2 fusion protein [Gillies, S D; Lan, Y; Lo, K M; Super, M; Wesolowski, J (1999) “Improving the efficacy of antibody-interleukin 2 fusion proteins by reducing their interaction with Fc receptors.” Cancer Research vol. 59 (9) p. 2159-66.]
# [4] = test system: antibodies in human serum; test: Biosensor (SPR) analysis of antibody levels in human serum against immobilized biotinylated antigens; type: binding; settings: 10% serum, after 5 minutes of serum exposure, biotinylated antigen on streptavidin chip
# Text: Biosensor analysis was used to evaluate levels of antibodies in human serum. Surface plasmon resonance (SPR) is an information-rich technique requiring only small amounts of material, and surfaces with immobilized compounds can be regenerated and used multiple times. Although this technique is most often associated with determination of kinetic parameters, it is also useful for rank ordering interactions with ligands and antibody characterization, and is compatible with serum. […] The biotinylated antigens were immobilized on streptavidin-coated sensor chips along with a biotinylated control peptide in a reference channel. Serum was collected from healthy volunteer donors under IRB-approved Human Subjects minimal risk protocol M-2005-1282 at the University of Wisconsin-Madison. To limit bulk refractive index changes and keep signal within the instrument's detection range, solutions of 10% serum were flowed across the chip, contacting antigens in this order: […] As a measure of antibody prevalence, corrected response units (RUantigen-RUreference) bound to each flow channel were compared after 5 minutes of serum exposure; more RU indicated greater antibody binding and therefore, a higher titer. […] Antibodies to rhamnose were further assessed with ELISA assays using immobilized rhamnose-BSA.
# [5] = test system: M21 cells; type: cell-based; settings: normal donor serum, FIG. 9
# Procedure: The requisite amount of chloroform solution containing each lipid compound was measured into a glass vial. Chloroform was removed by blowing argon into the vial until all solvent was evaporated leaving a lipid film on the glass. The lipid film was hydrated with sufficient buffer (HBSS with 1% BSA) to yield a 0.1 mM solution for 30 minutes at room temperature. The vials were then sonicated in a water bath sonicator to cause the lipids to sheet off of the glass. It is believed that the lipids form vesicle structures in the buffer.
# M21 cells were plated in a 12-well plate and allowed to grow over night. The next morning, the growth medium was removed and replaced with 0.5 mL of buffer (control) or lipid suspension. Cells were incubated in contact with lipids for 1 hour at 37° C. to allow for lipid insertion. The lipid suspension was then aspirated and cells were striped from the plate with 1 mM EDTA in PBS pH 7.4. The EDTA/cell suspensions were diluted ˜1:1 with HBSS/BSA buffer, spun down and resuspended at 500,000 cells mL^−1. Cell samples where CD55 and CD59 were to remain functional were diluted 1:1 in HBSS/BSA buffer. Cell samples in which complement inhibitory factors were to be blocked were diluted 1:1 with HBSS/BSA containing 20 μg/mL of each blocking antibody (anti-CD55: clone 143-30 from Southern Biotech, anti-CD59: clone MEM-43 from Novus Biologicals) for a final concentration of 10 μg/mL of each antibody.
# Cell suspensions (50 μL) were added to an opaque white 96-well plate in sextuplicate. […] (See plate illustration FIG. 7.) The plate was incubated at 37° C. for two hours to allow for complement activation and cell killing. After 2 hours, the plate was removed from the incubator and allowed to come to room temperature. […] Luminescence was read on a Tecan M1000 plate reader.
# Luminescence values were averaged for each set of triplicate wells. Since luminescence correlates to viable cells and the heat killed serum wells provide a measure of non-specific cell death, the fraction of viable cells for each condition is calculated as (avg. luminescencenormal serum)/(avg. luminescenceheat killed serum). […]
# FIG. 9 is a graph presenting results in terms of % viable cells for an experiment conducted with M21 cells as noted above which compared treatment of cells with lipid alone serum alone (negative control) (DPoPE), lipid+addition of CD55 and CD59 blocking antibodies, Rha2-lipid 51, Rha2-lipid 51+CD55 and CD59 blocking antibodies, 14.18-IL2 antibody (positive control), and 14.18-IL@antibody+CD55 and CD59 blocking antibodies. […] Cell Titer-Glo® assay (Promega) was used to measure living cells, Viability=(luminescence in wells treated with normal serum)/(luminescence of wells treated with heat inactivated serum).
# [6] = test system: M21 cells; test: Chromium-51 release assay (CDC / ADCC); type: cell-based
# Procedure: Experiments were performed using the art-recognized Chromium-51 (^51Cr) release assay to assess if Rha2-lipid conjugate 51 was capable of activating cellular responses ADCC.
# M21 cells were treated with lipid as described in Example 6. Target cells are labeled with ^51Cr and the release of label is a measure of cell cytolysis. In this case, the cells were contacted with Na^51Cr label overnight which is somewhat longer than is typically employed in the assay.
# This confirms results from Example 6 that Rha2-DPoPE was able to mediate CDC. Peripheral blood mononuclear cells (PBMCs) include immune effector cells some of which express CD16, the most important class of which is natural killer cells.
# [7] = test system: M21 cells; test: Fluorescent lipid insertion levels, quantitative flow cytometry with calibration beads; type: cell-based
# Text: FIG. 5 is a graph showing the results of flow cytometry measurements to assess the levels of insertion of fluorescent lipid conjugates into M21 cells. See Example 4 and Scheme 6 for details. Under the treatment conditions used, insertion levels of approximately 3×10^6 lipids per cell was achieved. All three fluorescent labeled lipids inserted robustly into the cell membrane.
# To estimate lipid insertion levels into model cells, three fluorescent lipid derivatives were synthesized: 101 an Alexa-Fluor® 488 dye conjugated to cholesterol, 102 Alexa-Fluor® 488 dye (Life Technologies) conjugated to POPE and 103 an Alexa-Fluor® 488 dye conjugated to DPoPE. M21 cells were treated with these lipids and assessed by quantitative flow cytometry using calibration beads to determine the number of fluorophores per cell. The results are illustrated in FIG. 5.
# [8] = plus CD55 and CD59 blocking antibodies 10 μg/mL each
compound,measurement,setting,value
CCCCCCCCCCCCCCCC(=O)OC[C@H](COP(=O)(O)OCCNC(=O)CCCCCNc1ccc([N+](=O)[O-])cc1[N+](=O)[O-])OC(=O)CCCCCCCCCCCCCCC.N [DNP-lipid],"anti-DNP staining shift (membrane insertion, antigen head group accessibility)",[1],positive shift
"O=[N+]([O-])c1ccc(O)c([N+](=O)[O-])c1 [DNP, 2,4-dinitrophenol]",loss of binding signal (response units) of antigen-antibody complex over time,[2],signal loss was greater
"CCCCCC/C=C\CCCCCCCC(=O)OC[C@H](COP(=O)(O)OCCNCCCCO[C@@H]1OC(C)[C@H](O)[C@H](O)C1O)OC(=O)CCCCCCC/C=C\CCCCCC (some centres unmarked) [Compound 4, Rha1-DPoPE]",complement activation (C4d staining),[3],activated complement
rhamnose,loss of binding signal (response units) of antigen-antibody complex over time,[2],affinity advantage over those of both αGal and DNP
same,"antibody prevalence (corrected response units bound, RUantigen-RUreference)",[4],more prevalent than those recognizing αGal in all cases; also recorded: equivalent or better to those recognizing DNP in most cases
"OC[C@H]1O[C@H](O[C@H]2[C@@H](O)[C@@H](CO)OC(O)[C@@H]2O)[C@H](O)[C@@H](O)[C@H]1O (stereo partly drawn) [αGal, Gal-α-1,3-Gal]",loss of binding signal (response units) of antigen-antibody complex over time,[2],signal loss was greater
"CCCCCC/C=C\CCCCCCCC(=O)OC[C@H](COP(=O)(O)OCCN)OC(=O)CCCCCCC/C=C\CCCCCC [DPoPE, 1,2-dipalmitoleoyl-sn-glycero-3-phosphoethanolamine]",% viability,[5]; CD55 and CD59 functional,remain equally viable
same,% viability,[5]; [8],slight negative impact on cell survival
"CCCCCC/C=C\CCCCCCCC(=O)OC[C@H](COP(=O)(O)OCCN(CCCCO[C@@H]1OC(C)[C@H](O)[C@H](O)C1O)CCCCO[C@@H]1OC(C)[C@H](O)[C@H](O)C1O)OC(=O)CCCCCCC/C=C\CCCCCC (some centres unmarked) [Compound 51, Rha2-DPoPE]",complement activation (C4d staining),[3],more efficient
same,"51Cr release (cytotoxicity, CDC)","[6]; serum alone, FIG. 10 left bar",Cr-51 was released
same,51Cr release (cytotoxicity),"[6]; serum with PBMCs added, FIG. 10 right bar",cytotoxicity increased
same,% viability,[5]; CD55 and CD59 functional,large decrease in viability
same,% viability,[5]; [8],significantly amplified
CC(C)CCC[C@@H](C)[C@H]1CC[C@H]2[C@@H]3CC=C4C[C@H](OC(=O)NCCOCCOCCNC(=O)c5cccc(-c6c7ccc(=N)c(S(=O)(=O)O)c-7oc7c(S(=O)(=O)O)c(N)ccc67)c5C(=O)O)CC[C@]4(C)[C@H]3CC[C@]12C [Compound 101],"insertion into cell membranes, copy numbers (fluorophores per cell)",[7],around 3×10^6
